Drawing on patent US11225505B2, “Antimicrobial polymyxin derivative compounds” (MONASH UNIVERSITY, priority 2015, dated 2022), this text covers Minimum inhibitory concentration for seven compounds.

≈ marks a conversion by molar mass, not a printed value. Where a SMILES comes first, the peptide text is derived from it. Bridges are numbered along the chain shown (N, C = ends). [ ]: non-standard residue; d: D form. The star is where a group is joined. X41 = O=C(c1cc2cc(F)c(F)cc2[nH]1)*; X47 = O=C(c1cc2cc(Cl)ccc2[nH]1)*; X6 = Cn1c(C(=O)*)cc2cc(Cl)ccc21; X58 = Cn1cc(CC(=O)*)c2ccccc21; X23 = O=C(c1cc2ccccc2[nH]1)*; X69 = Cn1c(C(=O)*)nc2ccccc21; X27 = O=C(c1sc2ccccc2c1Cl)*; Dab = NCC[C@H](N)C(=O)O; Abu = CC[C@H](N)C(=O)O; Dap = NC[C@H](N)C(=O)O

Common to all, as to assay type: cell-based
For assay [1], the system named is Acinetobacter baumannii ATCC 17978. As to conditions: ATCC 17978. A digest of the protocol: (§1)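 MICs were determined by broth microdilution in cation-adjusted Mueller-Hinton broth following the CLSI M100-S24 protocol. Lipopeptides were tested as trifluoroacetic acid salts against polymyxin-susceptible Gram-negative strains, with polymyxin B sulphate as control. FADDI-PA022 and FADDI-AB034 are multidrug-resistant clinical isolates.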

The subject of assay [2] is Acinetobacter baumannii FADDI-AB034. Particulars: FADDI-AB034. A digest of the protocol:
as §1

In assay [3] the test system is Enterobacter cloacae FADDI-EC001. Particulars: FADDI-EC001. A digest of the protocol: (§2)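 Broth microdilution MIC per CLSI in cation-adjusted Mueller-Hinton broth, lipopeptides tested as TFA salts. Polymyxin B sulphate served as control.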
Assay [4] has as its system Enterobacter cloacae FADDI-EC003. As to conditions: FADDI-EC003. A digest of the protocol: as §1
Assay [5] relates to Enterobacter cloacae FADDI-EC006. As to conditions: FADDI-EC006. A digest of the protocol: as §1
The subject of assay [6] is Klebsiella pneumoniae FADDI-KP022. As to conditions: FADDI-KP022. A digest of the protocol: as §1
Assay [7] relates to Klebsiella pneumoniae FADDI-KP032. As to conditions: FADDI-KP032. A digest of the protocol:
as §1

Assay [8] relates to Klebsiella pneumoniae Kp BM1. Particulars: Kp BM1. A digest of the protocol: as §2
The test system of assay [9] is Pseudomonas aeruginosa ATCC 27853. Particulars: ATCC 27853. A digest of the protocol: as §1
Assay [10] concerns Pseudomonas aeruginosa FADDI-PA01. Particulars: FADDI-. A digest of the protocol: as §1
The test system of assay [11] is Pseudomonas aeruginosa FADDI-PA022. As to conditions: FADDI-PA022. A digest of the protocol:
as §1

Assay [12] relates to Pseudomonas aeruginosa FADDI-PA038. Particulars: FADDI-PA038. A digest of the protocol: as §1
Assay [13] deals with Acinetobacter baumannii FADDI-AB030. The assay is described as follows: microbe, parasite or virus in culture. Particulars: FADDI-AB030. A digest of the protocol: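 Broth microdilution MIC in cation-adjusted Mueller-Hinton broth per CLSI M100-S24; lipopeptides tested as TFA salts. FADDI-AB030 is a multidrug-resistant clinical isolate. Polymyxin B sulphate served as control.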

Consider `CC[C@@H]1NC(=O)[C@@H](CC(C)C)NC(=O)[C@H](CCN)NC(=O)[C@@H](NC(=O)[C@H](CN)NC(=O)[C@@H](NC(=O)[C@H](CCN)NC(=O)c2cc3ccccc3[nH]2)[C@@H](C)O)CCNC(=O)[C@H]([C@@H](C)O)NC(=O)[C@H](CCN)NC(=O)[C@H](CCN)NC1=O` [Compound 56] (X23-[Dab]T[Dap][Dab][Dab][dL][Abu][Dab][Dab]T; lactam 4-C), for which the Minimum inhibitory concentration was 0.25 µg/mL (≈ 0.221 µM) in [1]; less than 0.125 µg/mL in assay [2]; less than 0.125 µg/mL in assay [3]; 0.5 µg/mL (≈ 0.442 µM) in assay [4]; 0.5 µg/mL (≈ 0.442 µM) in assay [5]; less than 0.125 µg/mL in assay [6]. In addition, the Minimum inhibitory concentration in assay [7] was less than 0.125 µg/mL; in assay [8], 0.25 µg/mL (≈ 0.221 µM); in [9], 0.25 µg/mL (≈ 0.221 µM); in assay [10], less than 0.125 µg/mL; in assay [11] it was 0.25 µg/mL (≈ 0.221 µM); in assay [12] it was 0.5 µg/mL (≈ 0.442 µM). In assay [13], this compound displayed a Minimum inhibitory concentration of 0.25 µg/mL (≈ 0.221 µM).
As to `CC[C@@H]1NC(=O)[C@@H](CC(C)C)NC(=O)[C@H](CCN)NC(=O)[C@@H](NC(=O)[C@H](CN)NC(=O)[C@@H](NC(=O)[C@H](CCN)NC(=O)c2nc3ccccc3n2C)[C@@H](C)O)CCNC(=O)[C@H]([C@@H](C)O)NC(=O)[C@H](CCN)NC(=O)[C@H](CCN)NC1=O` [Compound 57] (X69-[Dab]T[Dap][Dab][Dab][dL][Abu][Dab][Dab]T; lactam 4-C), the Minimum inhibitory concentration in assay [1] is 0.5 µg/mL (≈ 0.437 µM); in assay [2], 0.5 µg/mL (≈ 0.437 µM); in assay [3], less than 0.125 µg/mL; in assay [4], 0.25 µg/mL (≈ 0.218 µM); in assay [5], 1 µg/mL (≈ 0.873 µM); in assay [6], less than 0.125 µg/mL. The Minimum inhibitory concentration in [7] was less than 0.125 µg/mL; in assay [8], 0.25 µg/mL (≈ 0.218 µM); in assay [9], 0.5 µg/mL (≈ 0.437 µM); in assay [10] it was 0.25 µg/mL (≈ 0.218 µM); in assay [11] it was 0.5 µg/mL (≈ 0.437 µM); in [12], 0.5 µg/mL (≈ 0.437 µM). The compound also had a Minimum inhibitory concentration in [13] of 0.25 µg/mL (≈ 0.218 µM).
As to `CC[C@@H]1NC(=O)[C@@H](CC(C)C)NC(=O)[C@H](CCN)NC(=O)[C@@H](NC(=O)[C@H](CN)NC(=O)[C@@H](NC(=O)[C@H](CCN)NC(=O)c2cc3cc(Cl)ccc3n2C)[C@@H](C)O)CCNC(=O)[C@H]([C@@H](C)O)NC(=O)[C@H](CCN)NC(=O)[C@H](CCN)NC1=O` [Compound 58] (X6-[Dab]T[Dap][Dab][Dab][dL][Abu][Dab][Dab]T; lactam 4-C), the Minimum inhibitory concentration in [1] is 0.25 µg/mL (≈ 0.212 µM); in assay [2], 0.5 µg/mL (≈ 0.424 µM); in assay [3] it was 1 µg/mL (≈ 0.848 µM); in assay [4], less than 0.125 µg/mL; in assay [5], 0.5 µg/mL (≈ 0.424 µM); in assay [6], less than 0.125 µg/mL. Also, the Minimum inhibitory concentration in [7] was 0.5 µg/mL (≈ 0.424 µM); in assay [8], 0.25 µg/mL (≈ 0.212 µM); in assay [9], 0.5 µg/mL (≈ 0.424 µM); in assay [10], 0.5 µg/mL (≈ 0.424 µM); in assay [11] it was 0.5 µg/mL (≈ 0.424 µM); in assay [12], 2 µg/mL (≈ 1.7 µM). The compound also returned a Minimum inhibitory concentration in [13] of 0.25 µg/mL (≈ 0.212 µM).
For `CC[C@@H]1NC(=O)[C@@H](CC(C)C)NC(=O)[C@H](CCN)NC(=O)[C@@H](NC(=O)[C@H](CN)NC(=O)[C@@H](NC(=O)[C@H](CCN)NC(=O)c2cc3cc(Cl)ccc3[nH]2)[C@@H](C)O)CCNC(=O)[C@H]([C@@H](C)O)NC(=O)[C@H](CCN)NC(=O)[C@H](CCN)NC1=O` [Compound 59] (X47-[Dab]T[Dap][Dab][Dab][dL][Abu][Dab][Dab]T; lactam 4-C), the Minimum inhibitory concentration was 0.5 µg/mL (≈ 0.429 µM) in assay [1]; less than 0.125 µg/mL in [2]; 0.25 µg/mL (≈ 0.215 µM) in [3]; 0.25 µg/mL (≈ 0.215 µM) in assay [4]; 0.5 µg/mL (≈ 0.429 µM) in assay [5]; less than 0.125 µg/mL in assay [6]. The Minimum inhibitory concentration in assay [7] is 0.25 µg/mL (≈ 0.215 µM); in [8], 0.5 µg/mL (≈ 0.429 µM); in assay [9], 0.5 µg/mL (≈ 0.429 µM); in [10], 0.25 µg/mL (≈ 0.215 µM); in assay [11] it was 0.5 µg/mL (≈ 0.429 µM); in assay [12] it was 1 µg/mL (≈ 0.859 µM). This compound gave a Minimum inhibitory concentration in assay [13] of 0.5 µg/mL (≈ 0.429 µM).
As for `CC[C@@H]1NC(=O)[C@@H](CC(C)C)NC(=O)[C@H](CCN)NC(=O)[C@@H](NC(=O)[C@H](CN)NC(=O)[C@@H](NC(=O)[C@H](CCN)NC(=O)c2cc3cc(F)c(F)cc3[nH]2)[C@@H](C)O)CCNC(=O)[C@H]([C@@H](C)O)NC(=O)[C@H](CCN)NC(=O)[C@H](CCN)NC1=O` [Compound 60] (X41-[Dab]T[Dap][Dab][Dab][dL][Abu][Dab][Dab]T; lactam 4-C), the Minimum inhibitory concentration turned out to be 1 µg/mL (≈ 0.857 µM) in assay [1]; 0.5 µg/mL (≈ 0.429 µM) in assay [2]; 0.25 µg/mL (≈ 0.214 µM) in [3]; 0.25 µg/mL (≈ 0.214 µM) in assay [4]; 1 µg/mL (≈ 0.857 µM) in assay [5]; 0.5 µg/mL (≈ 0.429 µM) in assay [6]. Also, the Minimum inhibitory concentration stood at 0.5 µg/mL (≈ 0.429 µM) in [7]; 0.5 µg/mL (≈ 0.429 µM) in assay [8]; 0.5 µg/mL (≈ 0.429 µM) in assay [9]; 0.5 µg/mL (≈ 0.429 µM) in assay [10]; 0.5 µg/mL (≈ 0.429 µM) in assay [11]; 1 µg/mL (≈ 0.857 µM) in [12]. Also, the Minimum inhibitory concentration in assay [13] came out at 0.5 µg/mL (≈ 0.429 µM).
Turning to `CC[C@@H]1NC(=O)[C@@H](CC(C)C)NC(=O)[C@H](CCN)NC(=O)[C@@H](NC(=O)[C@H](CN)NC(=O)[C@@H](NC(=O)[C@H](CCN)NC(=O)c2sc3ccccc3c2Cl)[C@@H](C)O)CCNC(=O)[C@H]([C@@H](C)O)NC(=O)[C@H](CCN)NC(=O)[C@H](CCN)NC1=O` [Compound 61] (X27-[Dab]T[Dap][Dab][Dab][dL][Abu][Dab][Dab]T; lactam 4-C), the Minimum inhibitory concentration in assay [1] is less than 0.125 µg/mL; in [2], less than 0.125 µg/mL; in assay [3] it was 0.25 µg/mL (≈ 0.212 µM); in [4] it was less than 0.125 µg/mL; in [5], less than 0.125 µg/mL; in assay [6], less than 0.125 µg/mL. In addition, the Minimum inhibitory concentration in assay [7] was less than 0.125 µg/mL; in assay [8], 0.25 µg/mL (≈ 0.212 µM); in assay [9], 0.25 µg/mL (≈ 0.212 µM); in assay [10], less than 0.125 µg/mL; in [11] it was 0.25 µg/mL (≈ 0.212 µM); in assay [12], 0.25 µg/mL (≈ 0.212 µM). Also, the Minimum inhibitory concentration in [13] was less than 0.125 µg/mL.
In the case of `CC[C@@H]1NC(=O)[C@@H](CC(C)C)NC(=O)[C@H](CCN)NC(=O)[C@@H](NC(=O)[C@H](CN)NC(=O)[C@@H](NC(=O)[C@H](CCN)NC(=O)Cc2cn(C)c3ccccc23)[C@@H](C)O)CCNC(=O)[C@H]([C@@H](C)O)NC(=O)[C@H](CCN)NC(=O)[C@H](CCN)NC1=O` [Compound 62] (X58-[Dab]T[Dap][Dab][Dab][dL][Abu][Dab][Dab]T; lactam 4-C), the Minimum inhibitory concentration was 0.5 µg/mL (≈ 0.432 µM) in assay [1]; 0.5 µg/mL (≈ 0.432 µM) in assay [2]; less than 0.125 µg/mL in assay [3]; 0.25 µg/mL (≈ 0.216 µM) in assay [4]; 0.5 µg/mL (≈ 0.432 µM) in [5]; less than 0.125 µg/mL in assay [6]. The Minimum inhibitory concentration in assay [7] is less than 0.125 µg/mL; in [8], 0.25 µg/mL (≈ 0.216 µM); in [9] it was 0.5 µg/mL (≈ 0.432 µM); in [10], 1 µg/mL (≈ 0.863 µM); in [11] it was 0.5 µg/mL (≈ 0.432 µM); in assay [12], 0.5 µg/mL (≈ 0.432 µM). In [13], the Minimum inhibitory concentration came to 0.5 µg/mL (≈ 0.432 µM).
